Three molecules from BindingDB's records for doi:10.1073/pnas.92.19.8734 (Massachusetts General Hospital, 1995) can be followed below.

By pKi is commonly meant the negative decadic logarithm of the Ki, by convention in mol/L. A high value points to a small Ki.

Assay [1] has as its target Melatonin receptor type 1A (Homo sapiens, UniProt P48039).
The target in assay [2] is T1, Melatonin receptor type 1B (Homo sapiens, UniProt P49286).
T1 sequence (P49286 whole entry): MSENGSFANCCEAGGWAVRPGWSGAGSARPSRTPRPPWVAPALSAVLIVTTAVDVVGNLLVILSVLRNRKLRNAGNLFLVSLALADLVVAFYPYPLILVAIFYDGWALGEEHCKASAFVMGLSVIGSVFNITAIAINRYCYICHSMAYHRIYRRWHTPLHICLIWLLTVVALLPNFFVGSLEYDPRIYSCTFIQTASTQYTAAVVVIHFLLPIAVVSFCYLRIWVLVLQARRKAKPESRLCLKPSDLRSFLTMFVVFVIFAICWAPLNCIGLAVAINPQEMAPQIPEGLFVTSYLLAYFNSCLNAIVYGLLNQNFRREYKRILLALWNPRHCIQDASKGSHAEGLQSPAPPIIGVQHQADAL

Structures are written as SMILES. pKi: −log10 of the molar value. A value given as a limit tells only on which side of the number the result lay.

Chain of Melatonin receptor type 1A (P48039 whole entry): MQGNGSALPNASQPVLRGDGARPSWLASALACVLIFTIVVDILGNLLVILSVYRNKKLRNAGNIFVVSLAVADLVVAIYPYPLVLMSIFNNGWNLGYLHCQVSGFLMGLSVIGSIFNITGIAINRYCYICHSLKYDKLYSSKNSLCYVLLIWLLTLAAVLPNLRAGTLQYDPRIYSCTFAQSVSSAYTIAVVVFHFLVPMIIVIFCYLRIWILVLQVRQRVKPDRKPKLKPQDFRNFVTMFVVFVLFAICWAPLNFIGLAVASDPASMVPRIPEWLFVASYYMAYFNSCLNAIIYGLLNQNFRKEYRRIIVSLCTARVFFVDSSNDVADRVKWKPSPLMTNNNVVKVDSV

With `CC(=O)n1cc(CCN)c2cc(O)ccc21` [NSC_260803], the negative-log Ki (pKi) in assay [1] is 6.01; in assay [2] it was 6.23. `NCCc1c[nH]c2ccc(O)cc12` [[3H]-5-HT] had a negative-log Ki (pKi) in assay [2] of less than 5.00.

Consider `COc1cc2nc(N3CCN(C(=O)c4ccco4)CC3)nc(N)c2cc1OC` [[3H]-Minipress], for which the negative-log Ki (pKi) in assay [1] and in assay [2] was less than 5.00 each time.
